Laboratory results published in ChEMBL document CHEMBL1201862, “PubChem BioAssay data set” (2004).
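Dose response: 5 concentrations. Exposure: 48 h. Format: 96-well plates. Endpoint: linear interpolation; highest concentration if not reached. GI50 is the concentration that inhibits growth by half.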 The source made the active and inactive calls. No stated cut-off is given here; in the data, active = GI50 up to about 1.1 µM and inactive = higher.

Tests used:
Assay in all cases: inhibition of tumour cell growth, NCI panel, 48 h
[1] = test system: DMS-273
[2] = test system: HOP-18
[3] = test system: XF498
[4] = test system: SNB-78
[5] = test system: KM-20L2
[6] = test system: LXFL 529
[7] = test system: M19-MEL
[8] = test system: DLD-1
[9] = test system: RXF 631

SMILES | GI50 [1] | GI50 [2] | GI50 [3] | GI50 [4] | GI50 [5] | GI50 [6] | GI50 [7] | GI50 [8] | GI50 [9]
COc1ccc(CCc2ccccc2CC(=O)O)cc1 | > 100 µM (inactive) | > 100 µM (inactive) | > 100 µM (inactive) | > 100 µM (inactive) | > 100 µM (inactive) | > 100 µM (inactive) | > 100 µM (inactive) | > 100 µM (inactive) | –
CCOC(=O)C1=C(C)N(Cc2ccccc2)C(=O)C1CC#N (stereo not given) | > 100 µM (inactive) | 17 µM (inactive) | < 0.01 µM (active) | 37.2 µM (inactive) | > 100 µM (inactive) | 43.4 µM (inactive) | > 100 µM (inactive) | 56.1 µM (inactive) | –
OC1=CN=COc2ccccc21 | > 100 µM (inactive) | – | – | > 100 µM (inactive) | > 100 µM (inactive) | > 100 µM (inactive) | > 100 µM (inactive) | > 100 µM (inactive) | > 100 µM (inactive)
CCCCCCCCCCCCCP(=O)(NCC(N)=O)OCC (stereo not given) | – | 2.38 µM (inactive) | 19.1 µM (inactive) | 20 µM (inactive) | 17.4 µM (inactive) | 16.8 µM (inactive) | 19.7 µM (inactive) | 17.1 µM (inactive) | 18.9 µM (inactive)
CC(=O)CC(=O)NC=O | > 100 µM (inactive) | > 100 µM (inactive) | > 100 µM (inactive) | > 100 µM (inactive) | > 100 µM (inactive) | > 100 µM (inactive) | > 100 µM (inactive) | > 100 µM (inactive) | > 100 µM (inactive)
C/C(=C\c1ccccc1)C(=O)c1c(C)cc(C)cc1C | – | > 100 µM (inactive) | > 100 µM (inactive) | – | > 100 µM (inactive) | > 100 µM (inactive) | > 100 µM (inactive) | > 100 µM (inactive) | –
O=C(Cc1ccccc1)NS(=O)(=O)c1ccccc1 | > 100 µM (inactive) | > 100 µM (inactive) | > 100 µM (inactive) | > 100 µM (inactive) | > 100 µM (inactive) | > 100 µM (inactive) | – | > 100 µM (inactive) | > 100 µM (inactive)
CC[C@@H]1OC2(C)CC(S(=O)(=O)c3ccccc3)CC1O2 (stereo not given in full) | > 100 µM (inactive) | > 100 µM (inactive) | – | > 100 µM (inactive) | > 100 µM (inactive) | > 100 µM (inactive) | > 100 µM (inactive) | > 100 µM (inactive) | > 100 µM (inactive)
CC(=O)C1CC2(c3ccccc3)C(=O)c3ccccc3N2O1 (stereo not given) | > 100 µM (inactive) | > 100 µM (inactive) | > 100 µM (inactive) | > 100 µM (inactive) | > 100 µM (inactive) | > 100 µM (inactive) | > 100 µM (inactive) | > 100 µM (inactive) | –
Nc1ccc(C(=O)N/C(=C\c2ccc3c(c2)OCO3)c2nc3c(O)nc(S)nc3[nH]2)cc1 | – | – | > 100 µM (inactive) | > 100 µM (inactive) | > 100 µM (inactive) | > 100 µM (inactive) | > 100 µM (inactive) | > 100 µM (inactive) | > 100 µM (inactive)
CC(=O)N(C(C)=O)c1c(N)n(C)c(=O)[nH]c1=O | > 100 µM (inactive) | – | > 100 µM (inactive) | – | > 100 µM (inactive) | > 100 µM (inactive) | > 100 µM (inactive) | > 100 µM (inactive) | > 100 µM (inactive)
COC1=C(C(=O)OC(C)(C)C)[C@]2(C)C(C(=O)OC(C)(C)C)C(OC)=C(C(=O)OC(C)(C)C)[C@]2(C)C1C(=O)OC(C)(C)C (stereo not given in full) | 97.7 µM (inactive) | > 100 µM (inactive) | > 100 µM (inactive) | > 100 µM (inactive) | > 100 µM (inactive) | > 100 µM (inactive) | > 100 µM (inactive) | 83.9 µM (inactive) | –
CC12C(=O)N(CCN)C(=O)C1C1c3ccccc3C2c2ccccc21 (stereo not given) | > 100 µM (inactive) | > 100 µM (inactive) | > 100 µM (inactive) | > 100 µM (inactive) | > 100 µM (inactive) | > 100 µM (inactive) | > 100 µM (inactive) | > 100 µM (inactive) | –
Cn1c2ccccc2n2c(=O)c3c(c(C#N)c12)CCCC3 | > 100 µM (inactive) | – | > 100 µM (inactive) | > 100 µM (inactive) | > 100 µM (inactive) | – | > 100 µM (inactive) | > 100 µM (inactive) | –
CN(C)c1ccc(/C=C(/NC(=O)c2ccccc2)c2nc3cc(Cl)ccc3[nH]2)cc1 | 32.4 µM (inactive) | 2.42 µM (inactive) | – | 63.1 µM (inactive) | 27.7 µM (inactive) | 30.1 µM (inactive) | 27.5 µM (inactive) | 34.4 µM (inactive) | –
CCOC(=O)C(C)(C)Oc1ccc2c(-c3ccc(Cl)cc3)cc(=O)oc2c1 | > 100 µM (inactive) | – | – | – | > 100 µM (inactive) | > 100 µM (inactive) | > 100 µM (inactive) | > 100 µM (inactive) | > 100 µM (inactive)
CC1SC2=NC3=C(c4ccccc4C3=O)C(c3ccc(F)cc3)N2C1=O (stereo not given) | > 100 µM (inactive) | – | 89.7 µM (inactive) | – | > 100 µM (inactive) | 86.3 µM (inactive) | > 100 µM (inactive) | > 100 µM (inactive) | –
Nc1ccccc1[S+]([O-])c1ccccc1 (stereo not given) | > 100 µM (inactive) | > 100 µM (inactive) | > 100 µM (inactive) | – | > 100 µM (inactive) | > 100 µM (inactive) | > 100 µM (inactive) | – | –
C=C(CN(C)C)C(=O)c1ccccc1OC | 17.2 µM (inactive) | 6.08 µM (inactive) | 17.9 µM (inactive) | 25.6 µM (inactive) | 26.2 µM (inactive) | 3.68 µM (inactive) | 16.3 µM (inactive) | 4.49 µM (inactive) | –
Nc1ccc(Nc2nc(F)nc(-c3c4ccccc4c4n3CCS4)n2)cc1 | 10.4 µM (inactive) | 13.8 µM (inactive) | 4.91 µM (inactive) | 36.1 µM (inactive) | 18.1 µM (inactive) | 14.9 µM (inactive) | 16.5 µM (inactive) | 16.7 µM (inactive) | 15 µM (inactive)
O=C(NCCCCCCCCNC(=O)c1cccc2ccccc12)c1cccc2ccccc12 | 52.8 µM (inactive) | 21 µM (inactive) | 4.44 µM (inactive) | 13.4 µM (inactive) | > 100 µM (inactive) | > 56.5 µM (inactive) | > 86.1 µM (inactive) | > 100 µM (inactive) | 13.9 µM (inactive)
Cc1cc(Cl)ccc1NC1=NC(=O)C(CC(=O)Nc2ccc([N+](=O)[O-])cc2[N+](=O)[O-])S1 (stereo not given) | 30.5 µM (inactive) | – | 20.6 µM (inactive) | 28.6 µM (inactive) | 31.1 µM (inactive) | 18.8 µM (inactive) | 25.9 µM (inactive) | 34.1 µM (inactive) | –
CCC(C)CC(C)CC(C)/C=C(\C)C1=C(C)CC(C)(O)O1 (stereo not given) | 98.4 µM (inactive) | > 100 µM (inactive) | – | 86.9 µM (inactive) | – | 53 µM (inactive) | > 100 µM (inactive) | > 100 µM (inactive) | > 100 µM (inactive)
C[C@@H]1C2=CC[C@@]3(C)C(CCC3[C@H](C)[C@H]3C[C@@]4(C)O[C@@](c5cccnc5)(O3)OC4(C)C)[C@@H]2C2OC2[C@@]12CCC(=O)O2 (stereo not given in full) | 37.5 µM (inactive) | 20.5 µM (inactive) | – | 85.1 µM (inactive) | 31.8 µM (inactive) | 35.5 µM (inactive) | 41.2 µM (inactive) | 49.1 µM (inactive) | –
C=C[C@]1(C)CC(O)C2C(=C)C(=O)OC2[C@H]1C(=C)C=O (stereo not given in full) | – | 5.41 µM (inactive) | – | 3.56 µM (inactive) | 5.47 µM (inactive) | 1.64 µM (inactive) | 2.52 µM (inactive) | 2.08 µM (inactive) | –
CCC1(O)C(=O)OCc2c1cc1n(c2=O)Cc2cc3ccc(CO)cc3nc2-1 (stereo not given) | 1.12 µM (active) | 5.46 µM (inactive) | 1.29 µM (inactive) | – | 13.5 µM (inactive) | 26.7 µM (inactive) | 3.71 µM (inactive) | 51.3 µM (inactive) | 3.31 µM (inactive)
CC(=O)OC(C)(C)/C=C/C(=O)[C@](C)(O)[C@H]1[C@H](O)C[C@@]2(C)[C@@H]3CC=C4[C@@H](C=C(O)C(=O)C4(C)C)[C@]3(C)C(=O)C[C@]12C [CUCURBITACIN E] | 0.0241 µM (active) | 0.06 µM (active) | 0.0356 µM (active) | 0.0914 µM (active) | 0.0197 µM (active) | 0.0339 µM (active) | 0.0807 µM (active) | 0.0302 µM (active) | 0.0406 µM (active)
O=P(O)(NCCCl)NCCCl [PALIFOSFAMIDE] | 40 µM (inactive) | > 10 µM (inactive) | > 10 µM (inactive) | > 10 µM (inactive) | > 10 µM (inactive) | > 10 µM (inactive) | > 10 µM (inactive) | > 10 µM (inactive) | > 100 µM (inactive)
